# Reference: patent US20100130738A1 (priority 2007, published 2010)
# What was measured:
# [1] = biological target: T1, PDE3A catalytic domain (PDE3Acat) (Homo sapiens, UniProt Q14432); assay: Phosphodiesterase inhibitory activity, recombinant PDE3Acat, [3H]cAMP; format: biochemical; details: 30° C. 20 minutes, read-out: IC50 (μmol/L) PDE3
# T1 construct: isolate the cDNA of a PDE3A catalytic domain; made in house; host or cells: Sf9 insect cells (baculovirus, Bac-to-Bac / Gateway)
# PDE4Bcat = biological target: T2, PDE4Bcat (Homo sapiens, UniProt Q07343); assay: Phosphodiesterase inhibitory activity, recombinant PDE4Bcat, [3H]cAMP; format: biochemical; details: 30° C. 20 minutes, read-out: IC50 (μmol/L) PDE4
# T2 construct: made in house; host or cells: Sf9 insect cells (baculovirus, Bac-to-Bac / Gateway)
# T2 sequence (Q07343 330-659 limits assumed): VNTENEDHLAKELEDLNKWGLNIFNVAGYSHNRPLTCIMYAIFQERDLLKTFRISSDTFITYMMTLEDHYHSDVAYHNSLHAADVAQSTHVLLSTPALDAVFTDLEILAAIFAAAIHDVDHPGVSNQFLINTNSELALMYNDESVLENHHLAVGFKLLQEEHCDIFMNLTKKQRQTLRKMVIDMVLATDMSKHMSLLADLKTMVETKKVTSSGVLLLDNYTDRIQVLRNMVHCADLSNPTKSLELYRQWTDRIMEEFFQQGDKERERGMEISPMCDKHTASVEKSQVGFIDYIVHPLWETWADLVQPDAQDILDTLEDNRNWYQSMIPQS
# [2] = tested on: histamine-induced bronchoconstriction in guinea pigs; assay: Histamine-induced bronchoconstriction reaction in guinea pigs; format: in vivo, guinea pig; details: Cavia porcellus, iv, 0.5 min, compound 0.3 mg/kg i.v., measured 30 seconds after administration, histamine 12.5 μg/kg i.v., read-out: Inhibition rate (histamine-induced bronchoconstriction)
# Procedure: Guinea pigs were anesthetized with pentobarbital (30 mg/kg, i.p.). A cannula for intravenous administration, a cannula for collecting blood and measuring blood pressure, and a tracheal cannula were inserted into the left external jugular vein, right internal carotid artery, and trachea, respectively. The guinea pigs were maintained on artificial respiration under conditions of 60 times/min and 10 mL/kg/stroke. The overflowing air from the side branch of the tracheal cannula was measured by a bronchospasm transducer (Ugo-Basile) and recorded on a computer via Power Lab (ADInstruments Japan). The guinea pigs were immobilized with gallamine (10 mg/kg, i.v.), and histamine (12.5 μg/kg, i.v.) was administered at 10-minute intervals. After the histamine-induced bronchoconstriction became stable, the compound (0.3 mg/kg, i.v.) was administered. The histamine-induced bronchoconstriction reaction was measured 30 seconds after the compound administration to examine the bronchoconstriction inhibitory activity of the compound. The bronchoconstriction was recorded as the airflow value, and the results were represented by the ratio of the maximum value of the histamine-induced airflow 30 seconds after administration to the maximum value of the airflow before administration. Also, the test compounds dissolved in DMSO were used. Further, the indications were as follows: inhibition rate≧90% (+++), 90%>inhibition rate≧80% (++), and 80%>inhibition rate≧60% (+).
# T1 sequence (Q14432 674-1093 limits assumed): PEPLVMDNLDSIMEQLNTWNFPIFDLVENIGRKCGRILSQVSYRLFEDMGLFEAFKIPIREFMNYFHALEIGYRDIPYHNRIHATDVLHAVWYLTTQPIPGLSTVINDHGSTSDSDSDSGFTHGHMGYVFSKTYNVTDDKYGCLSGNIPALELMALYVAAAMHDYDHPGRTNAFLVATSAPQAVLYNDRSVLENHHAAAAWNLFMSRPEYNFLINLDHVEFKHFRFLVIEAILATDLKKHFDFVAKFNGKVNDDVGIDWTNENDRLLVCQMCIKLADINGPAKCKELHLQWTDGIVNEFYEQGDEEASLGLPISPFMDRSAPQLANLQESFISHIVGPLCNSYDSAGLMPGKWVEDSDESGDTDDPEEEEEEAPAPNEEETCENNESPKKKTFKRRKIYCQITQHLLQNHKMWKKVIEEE
IC50 [1] [µmol/L],IC50 (PDE4Bcat) [µmol/L],SMILES,inhibition in vivo at 0.3 mg/kg [2] [%]
< 0.01,< 0.01,"COc1ccc(C2=NN(CCCCOc3ccc(C4=NNC(=O)CC4C)c(F)c3F)C(=O)C2(C)C)c2[nH]c(C(F)(F)F)nc12 (stereo not drawn) [Example 221, 2-[4-[2,3-Difluoro-4-(4-methyl-6-oxo-1,4,5,6-tetrahydropyridazin-3-yl)phenoxy]butyl]-5-(4-methoxy-2-trifluoromethyl-1H-benzo[d]imidazol-7-yl)-4,4-dimethyl-2,4-dihydro-pyrazol-3-one]",≥ 90
0.01 to 0.1,0.01 to 0.1,"COc1ccc(C2=NN(CCCCOc3ccc(C4=NNC(=O)CC4C)cc3)C(=O)C2(C)C)c2ccc(C)nc12 (stereo not drawn) [Example 193, 5-(8-Methoxy-2-methylquinolin-5-yl)-2-[4-[4-(4-methyl-6-oxo-1,4,5,6-tetrahydropyridazin-3-yl)phenoxy]butyl]-4,4-dimethyl-4,4-dihydro-pyrazol-3-one]",≥ 90
< 0.01,0.01 to 0.1,"CCc1ccc2c(C3=NN(CCCCOc4ccc(C5=NNC(=O)CC5)c(F)c4F)C(=O)C3(C)C)ccc(OC)c2n1 [Example 198, 5-(2-Ethyl-8-methoxyquinolin-5-yl)-2-[4-[2,3-difluoro-4-(6-oxo-1,4,5,6-tetrahydropyridazin-3-yl)phenoxy]butyl]-4,4-dimethyl-2,4-dihydro-pyrazol-3-one]",≥ 90
0.1 to 1,0.01 to 0.1,"CCc1ccc2c(C3=NN(CCCCOc4ccc(C5=NNC(=O)CC5)cc4)C(=O)C3(C)C)ccc(OC)c2n1 [Example 200, 5-(2-Ethyl-8-methoxyquinolin-5-yl)-2-[4-[4-(6-oxo-1,4,5,6-tetrahydropyridazin-3-yl)phenoxy]butyl]-4,4-dimethyl-2,4-dihydro-pyrazol-3-one]",≥ 90
< 0.01,< 0.01,"COc1ccc(C2=NN(CCCCOc3ccc(C4=NNC(=O)CC4)c(F)c3F)C(=O)C2(C)C)n2cc(C(F)(F)F)nc12 [Example 235, 2-[4-[2,3-Difluoro-4-(6-oxo-1,4,5,6-tetrahydropyridazin-3-yl)phenoxy]butyl]-5-(8-methoxy-2-trifluoromethylimidazo[1,2-a]pyridin-5-yl)-4,4-dimethyl-2,4-dihydro-pyrazol-3-one]",80 to 90
0.01 to 0.1,< 0.01,"COc1ccc(C2=NN(CCCCOc3ccc(C4=NNC(=O)C4(C)C)c(F)c3F)C(=O)C2(C)C)c2[nH]c(C(F)(F)F)nc12 [Example 220, 2-[4-[2,3-Difluoro-4-(4,4-dimethyl-5-oxo-4,5-dihydro-1H-pyrazol-3-yl)phenoxy]butyl]-5-(4-methoxy-2-trifluoromethyl-1H-benzo[d]imidazol-7-yl)-4,4-dimethyl-2,4-dihydro-pyrazol-3-one]",≥ 90
< 0.01,0.01 to 0.1,"COc1ccc(C2=NN(CCCCOc3ccc(C4=NNC(=O)CC4C)c(F)c3F)C(=O)C2(C)C)c2ccc(C)nc12 (stereo not drawn) [Example 196, 2-[4-[2,3-Difluoro-4-(4-methyl-6-oxo-1,4,5,6-tetrahydropyridazin-3-yl)phenoxy]butyl]-5-(8-methoxy-2-methylquinolin-5-yl)-4,4-dimethyl-2,4-dihydro-pyrazol-3-one]",≥ 90
< 0.01,< 0.01,"COc1ccc(C2=NN(CCCCOc3ccc(C4=NNC(=O)CC4C)c(F)c3F)C(=O)C2(C)C)n2cc(C(F)(F)F)nc12 (stereo not drawn) [Example 234, 2-[4-[2,3-Difluoro-4-(4-methyl-6-oxo-1,4,5,6-tetrahydropyridazin-3-yl)phenoxy]butyl]-5-(8-methoxy-2-trifluoromethylimidazo[1,2-a]pyridin-5-yl)-4,4-dimethyl-2,4-dihydro-pyrazol-3-one]",80 to 90
< 0.01,< 0.01,"COc1ccc(C2=NN(CCCCOc3ccc(C4=NNC(=O)CC4C)c(F)c3F)C(=O)C2(C)C)c2sc(C(F)(F)F)nc12 (stereo not drawn) [Example 228, 2-[4-[2,3-Difluoro-4-(4-methyl-6-oxo-1,4,5,6-tetrahydropyridazin-3-yl)phenoxy]butyl]-5-(4-methoxy-2-trifluoromethylbenzo[d]thiazol-7-yl)-4,4-dimethyl-2,4-dihydro-pyrazol-3-one]",80 to 90
< 0.01,0.01 to 0.1,"COc1ccc(C2=NN(CCCCOc3ccc(C4=NNC(=O)CC4C)cc3F)C(=O)C2(C)C)c2cccnc12 (stereo not drawn) [Example 215, 2-[4-[2-Fluoro-4-(4-methyl-6-oxo-1,4,5,6-tetrahydropyridazin-3-yl)phenoxy]butyl]-5-(8-methoxyquinolin-5-yl)-4,4-dimethyl-2,4-dihydro-pyrazol-3-one]",≥ 90
< 0.01,0.01 to 0.1,"CCc1ccc2c(C3=NN(CCCCOc4ccc(C5=NNC(=O)C5(C)C)c(F)c4F)C(=O)C3(C)C)ccc(OC)c2n1 [Example 203, 5-(2-Ethyl-8-methoxyquinolin-5-yl)-2-[4-[2,3-difluoro-4-(4,4-dimethyl-5-oxo-4,5-dihydro-1H-pyrazol-3-yl)phenoxy]butyl]-4,4-dimethyl-2,4-dihydro-pyrazol-3-one]",≥ 90
< 0.01,< 0.01,"COc1ccc(C2=NN(CCCCOc3ccc(C4=NNC(=O)CC4)c(F)c3F)C(=O)C2(C)C)c2sc(C(F)(F)F)nc12 [Example 229, 2-[4-[2,3-Difluoro-4-(6-oxo-1,4,5,6-tetrahydropyridazin-3-yl)phenoxy]butyl]-5-(4-methoxy-2-trifluoromethylbenzo[d]thiazol-7-yl)-4,4-dimethyl-2,4-dihydro-pyrazol-3-one]",≥ 90
0.1 to 1,0.1 to 1,CCc1ccc2c(C3=NN(CCCCOc4ccc(C5=NNC(=O)CC5)cc4OC)C(=O)C3(C)C)ccc(OC)c2n1 [Example 238],60 to 80
< 0.01,0.01 to 0.1,"COc1ccc(C2=NN(CCCCOc3ccc(C4=NNC(=O)C4(C)C)c(F)c3F)C(=O)C2(C)C)c2cccnc12 [Example 213, 2-[4-[2,3-Difluoro-4-(4,4-dimethyl-5-oxo-4,5-dihydro-1H-pyrazol-3-yl)phenoxy]butyl]-5-(8-methoxyquinolin-5-yl)-4,4-dimethyl-2,4-dihydro-pyrazol-3-one]",≥ 90
0.01 to 0.1,< 0.01,"CCc1ccc2c(C3=NN(CCCCOc4ccc(C5=NNC(=O)CC5)cc4F)C(=O)C3(C)C)ccc(OC)c2n1 [Example 199, 5-(2-Ethyl-8-methoxyquinolin-5-yl)-2-[4-[2-fluoro-4-(6-oxo-1,4,5,6-tetrahydropyridazin-3-yl)phenoxy]butyl]-4,4-dimethyl-2,4-dihydro-pyrazol-3-one]",≥ 90
< 0.01,0.01 to 0.1,"COc1ccc(C2=NN(CCCCOc3ccc(C4=NNC(=O)CC4C)c(F)c3F)C(=O)C2(C)C)c2cccnc12 (stereo not drawn) [Example 214, 2-[4-[2,3-Difluoro-4-(4-methyl-6-oxo-1,4,5,6-tetrahydropyridazin-3-yl)phenoxy]butyl]-5-(8-methoxyquinolin-5-yl)-4,4-dimethyl-2,4-dihydro-pyrazol-3-one]",≥ 90
< 0.01,< 0.01,"COc1ccc(C2=NN(CCCCOc3ccc(C4=NNC(=O)CC4)c(F)c3F)C(=O)C2(C)C)c2[nH]c(C(F)(F)F)nc12 [Example 219, 2-[4-[2,3-Difluoro-4-(6-oxo-1,4,5,6-tetrahydropyridazin-3-yl)phenoxy]butyl]-5-(4-methoxy-2-trifluoromethyl-1H-benzo[d]imidazol-7-yl)-4,4-dimethyl-2,4-dihydro-pyrazol-3-one]",≥ 90
